Data from US20160213003A1, “APPLICATION OF POLYOXOMETALATE IN PREPARATION OF DISINFECTANT FOR STERILIZING AND REMOVING FORMALDEHYDE” (NINGBO YUCHEN ENVIROCLEAN TECH CO., LTD., priority 2013, published 2016).

System: Staphylococcus aureus
Assay: Kirby-Bauer diffusion detection of sterilizing capability (inhibition zone diameter)
Format: cell-based
Details: for sterilization effect without oxygen ventilation (diameter, mm): pH 10, no oxygen ventilation
Method: In catalyst screening, Staphylococcus aureus was used as the microorganisms, and a trypsin soybean agar was used as a culture medium. The material powder to be screened was prepared into a homogeneous mixture solution by pure water in a 3% weight/volume ratio (i.e., 3 g powder/100 mL water), then immersed with a neutral precise filtration filter paper of 5 mm diameter for about 10 seconds, then placed into a Kirby-Bauer diffusion detection plate. A Kirby-Bauer diffusion detection plate was placed in a sealed glass cover, and the air was provided into the glass cover at a speed of about 10 liters per minute. The sterilizing capability of the catalyst was measured by the diameter of the zone without bacterial growth around the filter paper. A variety of polyoxometalates were respectively prepared into a water solution with a 3% mass concentration, and pH was controlled to 10. The sterilizing capability was also detected by Kirby-Bauer diffusion detection method in which Staphylococcus aureus was used as the microorganisms, respectively including no oxygen ventilation and oxygen ventilation. When oxygen was ventilated, the condition for oxygen ventilation was the same, the temperature was room temperature (25° C.) and 37° C. […] Potassium polytungstate (K3[PW12O40]) was respectively prepared into water solutions with mass concentration of 0.5%, 1.0%, 2.0%, 3%, 5%, 10%, and 15%, and the pH were controlled to 10. The sterilizing capability was also detected by Kirby-Bauer diffusion detection method in which Staphylococcus aureus was used as the microorganisms, the condition for oxygen ventilation was the same, and the temperature was room temperature (25° C.) and 37° C. […] Potassium polytungstate (K3[PW12O40]) was respectively prepared into water solutions with a concentration of 3% and pH of 6, 7, 8, 8.5, 9, 9.5, 10, 10.5, 11, 11.5, 12. The sterilizing capability was also detected by Kirby-Bauer diffusion detection method in which Staphylococcus aureus was used as the microorganisms, the condition for oxygen ventilation was the same, and the temperature was room temperature (25° C.) and 37° C.

[1] = 3% water solution, pH 10, oxygen ventilation, 25° C.
[2] = 3% water solution, pH 10, oxygen ventilation, 37° C.

## Na3[PW12O40]
3% water solution
  sterilization effect without oxygen ventilation (diameter, mm): 3 mm
[1]
  sterilization effect at 25° C. (diameter, mm): 19 mm
[2]
  sterilization effect at 37° C. (diameter, mm): 18 mm

## Potassium polytungstate [K3[PW12O40]]
3% water solution, pH 6, oxygen ventilation, 25° C.
  sterilization effect at 25° C. (diameter, mm): 5 mm
3% water solution, pH 6, oxygen ventilation, 37° C.
  sterilization effect at 37° C. (diameter, mm): 6 mm
3% water solution, pH 7, oxygen ventilation, 25° C.
  sterilization effect at 25° C. (diameter, mm): 6 mm
3% water solution, pH 7, oxygen ventilation, 37° C.
  sterilization effect at 37° C. (diameter, mm): 8 mm
3% water solution, pH 8, oxygen ventilation, 25° C.
  sterilization effect at 25° C. (diameter, mm): 8 mm
3% water solution, pH 8, oxygen ventilation, 37° C.
  sterilization effect at 37° C. (diameter, mm): 11 mm
3% water solution, pH 8.5, oxygen ventilation, 25° C.
  sterilization effect at 25° C. (diameter, mm): 14 mm
3% water solution, pH 8.5, oxygen ventilation, 37° C.
  sterilization effect at 37° C. (diameter, mm): 15 mm
3% water solution, pH 9, oxygen ventilation, 25° C.
  sterilization effect at 25° C. (diameter, mm): 17 mm
3% water solution, pH 9, oxygen ventilation, 37° C.
  sterilization effect at 37° C. (diameter, mm): 18 mm
3% water solution, pH 9.5, oxygen ventilation, 25° C.
  sterilization effect at 25° C. (diameter, mm): 20 mm
3% water solution, pH 9.5, oxygen ventilation, 37° C.
  sterilization effect at 37° C. (diameter, mm): 19 mm
3% water solution
  sterilization effect without oxygen ventilation (diameter, mm): 3 mm
[1]
  sterilization effect at 25° C. (diameter, mm): 19 mm
3% water solution, pH 10, oxygen ventilation, 25° C. (pH series)
  sterilization effect at 25° C. (diameter, mm): 19 mm
[2]
  sterilization effect at 37° C. (diameter, mm): 19 mm
3% water solution, pH 10, oxygen ventilation, 37° C. (pH series)
  sterilization effect at 37° C. (diameter, mm): 19 mm
3% water solution, pH 10.5, oxygen ventilation, 25° C.
  sterilization effect at 25° C. (diameter, mm): 18 mm
3% water solution, pH 10.5, oxygen ventilation, 37° C.
  sterilization effect at 37° C. (diameter, mm): 19 mm
3% water solution, pH 11, oxygen ventilation, 25° C.
  sterilization effect at 25° C. (diameter, mm): 20 mm
3% water solution, pH 11, oxygen ventilation, 37° C.
  sterilization effect at 37° C. (diameter, mm): 20 mm
3% water solution, pH 11.5, oxygen ventilation, 25° C.
  sterilization effect at 25° C. (diameter, mm): 20 mm
3% water solution, pH 11.5, oxygen ventilation, 37° C.
  sterilization effect at 37° C. (diameter, mm): 20 mm
3% water solution, pH 12, oxygen ventilation, 25° C.
  sterilization effect at 25° C. (diameter, mm): 20 mm
3% water solution, pH 12, oxygen ventilation, 37° C.
  sterilization effect at 37° C. (diameter, mm): 20 mm
Concentration 0.5%, pH 10, oxygen ventilation, 25° C.
  sterilization effect at 25° C. (diameter, mm): 8 mm
Concentration 0.5%, pH 10, oxygen ventilation, 37° C.
  sterilization effect at 37° C. (diameter, mm): 9 mm
Concentration 1.0%, pH 10, oxygen ventilation, 25° C.
  sterilization effect at 25° C. (diameter, mm): 11 mm
Concentration 1.0%, pH 10, oxygen ventilation, 37° C.
  sterilization effect at 37° C. (diameter, mm): 10 mm
Concentration 2.0%, pH 10, oxygen ventilation, 25° C.
  sterilization effect at 25° C. (diameter, mm): 14 mm
Concentration 2.0%, pH 10, oxygen ventilation, 37° C.
  sterilization effect at 37° C. (diameter, mm): 16 mm
Concentration 3.0%, pH 10, oxygen ventilation, 25° C.
  sterilization effect at 25° C. (diameter, mm): 16 mm
Concentration 3.0%, pH 10, oxygen ventilation, 37° C.
  sterilization effect at 37° C. (diameter, mm): 18 mm
Concentration 5%, pH 10, oxygen ventilation, 25° C.
  sterilization effect at 25° C. (diameter, mm): 18 mm
Concentration 5%, pH 10, oxygen ventilation, 37° C.
  sterilization effect at 37° C. (diameter, mm): 19 mm
Concentration 10%, pH 10, oxygen ventilation, 25° C.
  sterilization effect at 25° C. (diameter, mm): 20 mm
Concentration 10%, pH 10, oxygen ventilation, 37° C.
  sterilization effect at 37° C. (diameter, mm): 20 mm
Concentration 15%, pH 10, oxygen ventilation, 25° C.
  sterilization effect at 25° C. (diameter, mm): 19 mm
Concentration 15%, pH 10, oxygen ventilation, 37° C.
  sterilization effect at 37° C. (diameter, mm): 18 mm
